In US20170328922A1, “METHODS AND PRODUCTS FOR LABELLING LIPIDS” (UNIVERSITY OF SOUTH AUSTRALIA, priority 2014, published 2017):

Columns and labels:
[1] = Rhenium molecular probe-lipid overlay (dot blot); type: binding; set-up: key to interaction with Sphingosine (dot blot): ✓ indicates a positive interaction; x indicates no interaction
Method: (§1) The experimental protocol probe-lipid overlay was as follows: 50 μM of each lipids was loaded on to PVDF membranes (Perkin Elmer, USA), which were then incubated with molecular probes. PhenCyano and PhenPyridyl were assessed against eleven lipids including; sphingomyelin (Cat # S0756, Sigma Aldrich, USA), sphingosine (Cat # S7049; Sigma Aldrich, USA), L-phosphatidylethanolamine (Cat # P7943, Sigma Aldrich, USA), monosialodanglioside (GM1; Cat # G7641, Sigma Aldrich, USA), oleoly-L-?-lysophosphatidic acid (Cat # L7260, Sigma Aldrich, USA), palmitic acid (Cat # P5917, Sigma Aldrich, USA), sphingomyelin (Cat # S0756, Sigma Aldrich, USA), sphingosine (Cat # S7049; Sigma Aldrich, USA), L-?-phosphatidylethanolamine (Cat # P7943, Sigma Aldrich, USA), monosialodanglioside (GM1; Cat # G7641, Sigma Aldrich, USA), progesterone (Cat #102722, MP Biomedical, USA), ceramide (Cat # C2137; Sigma Aldrich, USA), triacylglycerol mix C2-C10 (Cat #17810, Sigma Aldrich, USA) and cholesteryl acetate (Cat #151114; Sigma Aldrich, USA).
(§2) All other molecular probes were assessed against a panel of six lipids including; sphingomyelin (Cat # S0756, Sigma Aldrich, USA), sphingosine (Cat # S7049; Sigma Aldrich, USA), L-?-phosphatidylethanolamine (Cat # P7943, Sigma Aldrich, USA), monosialodanglioside (GM1; Cat # G7641, Sigma Aldrich, USA), sphingomyelin (Cat # S0756, Sigma Aldrich, USA), sphingosine (Cat # S7049; Sigma Aldrich, USA), L-?-phosphatidylethanolamine (Cat # P7943, Sigma Aldrich, USA), monosialodanglioside (GM1; Cat # G7641, Sigma Aldrich, USA) and triacylglycerol mix C2-C10 (Cat #17810, Sigma Aldrich, USA).
(§3) Lipids were dissolved in ethanol, methanol or isopropanol for loading depending on solubility. Following lipid loading, membranes were left to dry for 20-30 minutes, then they were washed for 10 minutes in cold 10% ethanol, before they were incubated with 10 μM solution of each Rhenium molecular probe in cold 10% ethanol for one hour. Membranes were than washed four times for 10 minutes in cold 10% ethanol prior to imaging. Imaging was performed on an Image Quant Las 4000 (GE, Sweden) luminescent image analyser, with the Rhenium molecular probe being detected by excitation at 460 nm using an epi-blue light source, and detected using an 575 nm ethidium bromide filter.

[2] = Rhenium molecular probe-lipid overlay (dot blot); type: binding; conditions: FIG. 7 / FIG. 8
Method: as §1, §2, §3

Q: Which “interaction with Sphingosine (dot blot)” value ([1]; 10 μM probe, 50 μM lipid on PVDF membrane) does the source give for N#Cc1ccc(-c2nn[n]([Re](=[C]=O)(=[C]=O)=[C]=O)n2)cc1.c1cnc2c(c1)ccc1cccnc12 [PhenCyano, Triscarbonyl phenanthroline (4-cyanophenyltetrazolato)Rhenium(I)] here?
A: The value was “✓”.

Q: What about the “affinity towards sphingosine, in words” value ([1]; FIG. 7 / FIG. 8) of the same compound?
A: Its value is “some affinity”.

Q: What about the “interaction with triglycerides, in words” value [2] of the same compound?
A: The value was “no interaction detected”.
